From ChEMBL document CHEMBL3352625, “Development of novel neurokinin 3 receptor (NK3R) selective agonists with resistance to proteolytic degradation” (J Med Chem, 2014) come the findings set out here.

In assay [1] the target is T1, Neuromedin-K receptor (Homo sapiens, UniProt P29371).
T1 sequence (P29371 whole entry): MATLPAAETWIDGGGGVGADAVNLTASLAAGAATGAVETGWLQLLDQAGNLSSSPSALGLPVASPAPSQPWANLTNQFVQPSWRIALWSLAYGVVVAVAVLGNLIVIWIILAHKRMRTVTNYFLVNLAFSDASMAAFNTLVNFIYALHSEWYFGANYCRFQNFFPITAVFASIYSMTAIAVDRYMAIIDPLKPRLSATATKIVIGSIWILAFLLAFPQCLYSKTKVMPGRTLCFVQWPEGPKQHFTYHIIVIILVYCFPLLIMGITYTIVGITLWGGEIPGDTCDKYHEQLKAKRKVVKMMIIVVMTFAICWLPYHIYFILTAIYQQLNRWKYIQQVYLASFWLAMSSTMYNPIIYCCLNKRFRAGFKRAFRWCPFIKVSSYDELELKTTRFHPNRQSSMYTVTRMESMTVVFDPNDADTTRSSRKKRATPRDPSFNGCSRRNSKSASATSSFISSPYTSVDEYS
Briefly: Agonist activity at human NK3R expressed in CHO cells assessed as potentiation of senktide-induced effect. In kind it is cell-based.

Assay [2] deals with T1, Neuromedin-K receptor. Briefly: Displacement of [125I]His3, MePhe7 from human NK3R expressed in CHO cell membranes by scintillation counting.
Assay [3] deals with T2, Substance-K receptor (Homo sapiens) (UniProt P21452).
T2 sequence (whole entry): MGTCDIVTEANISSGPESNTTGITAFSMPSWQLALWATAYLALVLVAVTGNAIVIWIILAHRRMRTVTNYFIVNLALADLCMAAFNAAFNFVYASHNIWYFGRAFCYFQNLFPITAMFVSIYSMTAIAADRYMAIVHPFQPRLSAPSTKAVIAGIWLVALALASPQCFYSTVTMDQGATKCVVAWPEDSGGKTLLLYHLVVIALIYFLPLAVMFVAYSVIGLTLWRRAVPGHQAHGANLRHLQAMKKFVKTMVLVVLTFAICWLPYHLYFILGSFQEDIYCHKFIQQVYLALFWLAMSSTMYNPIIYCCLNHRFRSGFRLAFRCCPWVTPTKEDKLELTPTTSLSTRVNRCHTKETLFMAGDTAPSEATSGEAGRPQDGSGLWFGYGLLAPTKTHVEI
The experiment in a line: Displacement of [125I]-NKA from […] expressed in CHO cell membranes at 10 uM by scintillation counting.

The target of assay [4] is Substance-P receptor (Homo sapiens) (UniProt P25103). The experiment in a line: Displacement of [125I]-BH-SP from human NK1R expressed in CHO cell membranes at 10 uM by scintillation counting.
Assay [5] concerns the target T1, Neuromedin-K receptor. Briefly: (§1) Agonist activity at human NK3R expressed in CHO cells assessed as induction of Ca2+ influx […]. In kind it is functional, cell-based.
In assay [6] the target is T3, Neuromedin-K receptor (Homo sapiens) (UniProt P29371).
T3 sequence (whole entry): T1 sequence (P29371 whole entry)
The description is as §1. In kind it is functional, cell-based.

The target of assay [7] is T4, Neuromedin-K receptor (Rattus norvegicus, UniProt P16177).
T4 sequence (P16177 whole entry): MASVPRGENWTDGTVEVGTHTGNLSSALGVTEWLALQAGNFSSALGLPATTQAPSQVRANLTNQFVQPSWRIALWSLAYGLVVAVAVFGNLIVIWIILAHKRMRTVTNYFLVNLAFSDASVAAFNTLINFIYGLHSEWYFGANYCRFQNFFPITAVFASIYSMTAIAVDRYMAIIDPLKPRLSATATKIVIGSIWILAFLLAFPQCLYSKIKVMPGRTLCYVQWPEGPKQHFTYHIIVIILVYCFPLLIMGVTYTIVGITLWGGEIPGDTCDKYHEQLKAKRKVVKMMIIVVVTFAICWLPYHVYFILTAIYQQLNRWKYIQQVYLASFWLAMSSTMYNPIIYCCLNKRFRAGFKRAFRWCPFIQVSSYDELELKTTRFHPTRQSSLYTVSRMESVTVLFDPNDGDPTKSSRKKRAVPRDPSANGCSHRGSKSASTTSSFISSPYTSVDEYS
The experiment in a line: Agonist activity at rat NK3R.

Assay [8] in a line: Agonist activity at cattle NK3R. More on the design: species or system Bos taurus.
A short description of assay [9]: Agonist activity at goat NK3R. On the set-up: species or system Capra hircus.
Assay [10] in a line: Induction of GnRH release in ovariectomized goat assessed as induction of multiple-unit activity volley measured as duration of effect at 200 nmol, iv as single dose. It counts as functional, Capra hircus.

Active and inactive are the calls of the source. The calls are words filed in the database; no cut-off is given here. *1 amine or outer side, *2 acyl side, *3 side chain or, on linkers, in order; H or OH if unused. Where a SMILES comes first, the peptide text is derived from it. [ ]: non-standard residue; d: D form. Glyψ(E-CHCH)Leu = CC(C)C[C@H](/C=C/CN[*:1])C(=O)[*:2]; X4 = CC(C)C[C@H](N/C(CN[*:1])=N\O)C(=O)[*:2]; X3 = CC(C)C[C@H](NC(=N)CN[*:1])C(=O)[*:2]; X1 = CC(C)C[C@H](CCCN[*:1])C(=O)[*:2]; X2 = CC(C)C/C(=C\CCN[*:1])C(=O)[*:2]; NMeF = CN[C@@H](Cc1ccccc1)C(=O)O; Suc = O=C(CCC(=O)[*:2])[*:1]

Substance-P receptor (Homo sapiens), sequence (P25103 whole entry): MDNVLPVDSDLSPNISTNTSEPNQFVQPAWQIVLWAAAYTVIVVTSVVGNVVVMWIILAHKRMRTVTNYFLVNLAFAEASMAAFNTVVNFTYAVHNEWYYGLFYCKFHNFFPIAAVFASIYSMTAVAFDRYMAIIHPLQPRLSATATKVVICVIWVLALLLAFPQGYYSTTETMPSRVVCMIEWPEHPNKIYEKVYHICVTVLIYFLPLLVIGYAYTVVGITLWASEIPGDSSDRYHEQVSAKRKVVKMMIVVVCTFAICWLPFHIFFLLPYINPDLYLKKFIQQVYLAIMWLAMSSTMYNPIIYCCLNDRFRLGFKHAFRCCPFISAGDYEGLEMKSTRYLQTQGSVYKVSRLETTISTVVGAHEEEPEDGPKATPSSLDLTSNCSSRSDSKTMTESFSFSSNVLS

As for `CSCC[C@H](NC(=O)[C@H](CC(C)C)N/C(CNC(=O)[C@H](Cc1ccccc1)N(C)C(=O)[C@H](Cc1ccccc1)NC(=O)[C@H](CC(=O)O)NC(=O)CCC(=O)O)=N\O)C(N)=O` (Suc-DF[NMeF][X4]M-NH2), in assay [1], the EC50 turned out to be 370 nM. For the same compound, the IC50 in assay [2] came out at 1100 nM.

With `CSCC[C@H](NC(=O)[C@H](CC(C)C)NC(=O)CNC(=O)[C@H](Cc1ccccc1)N(C)C(=O)[C@H](Cc1ccccc1)NC(=O)[C@H](Cc1ccccc1)NC(=O)[C@H](CC(=O)O)NC(=O)[C@@H](N)Cc1cnc[nH]1)C(N)=O` (H-HDFF[NMeF]GLM-NH2), the values for the inhibition in assay [3] and in [4] were 74% and 18%, respectively. Besides, the IC50 in assay [2] was 43 nM. Also, the EC50 in [5] worked out at 280 nM.

For `CSCC[C@H](NC(=O)[C@@H](N)CC(C)C)C(N)=O` (H-Leu-Met-NH2), the outcome in assay [6] was inactive.

Consider `CSCC[C@H](NC(=O)[C@H](CC(C)C)NC(=O)CNC(=O)[C@H](Cc1ccccc1)N(C)C(=O)[C@H](Cc1ccccc1)NC(=O)[C@H](Cc1ccccc1)NC(=O)[C@@H](N)CC(=O)O)C(N)=O` (H-DFF[NMeF]GLM-NH2), for which the figures for the inhibition in [3] and in assay [4] were 73% and 15%, respectively. In [2], this compound showed a half-maximal inhibitory concentration (IC50) of 59 nM. The EC50 in assay [5] came to 91 nM.

On to `CSCC[C@H](NC(=O)[C@H](CC(C)C)NC(=N)CNC(=O)[C@H](Cc1ccccc1)N(C)C(=O)[C@H](Cc1ccccc1)NC(=O)[C@H](CC(=O)O)NC(=O)CCC(=O)O)C(N)=O` (Suc-DF[NMeF][X3]M-NH2), for which the EC50 in assay [1] turned out to be 100 nM. Further, the IC50 in assay [2] was determined as 360 nM.

Take `CN(C(=O)[C@H](Cc1ccccc1)NC(=O)[C@H](CC(=O)O)NC(=O)CCC(=O)O)[C@@H](Cc1ccccc1)C(=O)NCC(=O)O` (Suc-DF[NMeF]G-OH): the result in assay [6] was inactive.

For the compound `CN(C(=O)[C@@H](N)Cc1ccccc1)[C@@H](Cc1ccccc1)C(=O)NCC(=O)O` (H-Phe-[NMeF]-Gly-OH), in [5], the EC50 was greater than 100000 nM.

Take `CSCC[C@H](NC(=O)[C@H](CC(C)C)NC(=O)CNC(=O)[C@H](Cc1ccccc1)N(C)C(=O)[C@H](Cc1ccccc1)NC(=O)[C@H](Cc1ccccc1)NC(=O)[C@H](CC(=O)O)NC(=O)[C@H](Cc1cnc[nH]1)NC(=O)[C@@H](N)CCSC)C(N)=O` (H-MHDFF[NMeF]GLM-NH2): the inhibition in assay [3] worked out at 78%; in assay [4], 22%. In assay [2], this compound registered an IC50 of 22 nM. The EC50 in assay [5] worked out at 330 nM.

On to `CSCC[C@H](NC(=O)/C(=C/CCNC(=O)[C@H](Cc1ccccc1)N(C)C(=O)[C@H](Cc1ccccc1)NC(=O)[C@H](CC(=O)O)NC(=O)CCC(=O)O)CC(C)C)C(N)=O` (Suc-DF[NMeF][X2]M-NH2), for which the EC50 in assay [1] was 1900 nM. In assay [2], the IC50 came to 13000 nM.

With `CSCC[C@H](NC(=O)[C@@H](/C=C/CNC(=O)[C@H](Cc1ccccc1)N(C)C(=O)[C@H](Cc1ccccc1)NC(=O)[C@H](CC(=O)O)NC(=O)CCC(=O)O)CC(C)C)C(N)=O` (Suc-DF[NMeF][Glyψ(E-CHCH)Leu]M-NH2), the 50% effective concentration (EC50) in assay [7] came out at 19 nM; in assay [1] it was 16 nM; in [8], 360 nM; in [9], 11 nM. Besides, the IC50 in assay [2] amounted to 56 nM. Also, the Time in assay [10] was determined as 92.1 min.

Regarding `CSCC[C@H](NC(=O)[C@H](CC(C)C)NC(=O)CNC(=O)[C@H](Cc1ccccc1)N(C)C(=O)[C@@H](N)Cc1ccccc1)C(N)=O` (H-F[NMeF]GLM-NH2), the inhibition in assay [3] was found to be 77%; in assay [4], 70%. In assay [2], the IC50 came to 2300 nM. Moreover, the EC50 in [5] amounted to 350 nM.

On to `CSCC[C@H](NC(=O)[C@@H](CCCNC(=O)[C@H](Cc1ccccc1)N(C)C(=O)[C@H](Cc1ccccc1)NC(=O)[C@H](CC(=O)O)NC(=O)CCC(=O)O)CC(C)C)C(N)=O` (Suc-DF[NMeF][X1]M-NH2), for which the EC50 in assay [1] worked out at 920 nM. The same compound gave a half-inhibitory concentration (IC50) in [2] of 19000 nM.

As to `CSCC[C@H](NC(=O)[C@H](CC(C)C)NC(=O)CNC(=O)[C@H](Cc1ccccc1)N(C)C(=O)[C@@H](N)Cc1ccccc1)C(=O)O` (H-F[NMeF]GLM-OH), the EC50 in assay [5] is greater than 100000 nM.

In the case of `CSCC[C@H](NC(=O)[C@H](CC(C)C)NC(=O)CNC(=O)[C@H](Cc1ccccc1)N(C)C(=O)[C@H](Cc1ccccc1)NC(=O)[C@@H](N)Cc1ccccc1)C(N)=O` (H-FF[NMeF]GLM-NH2), the inhibition in assay [3] worked out at 84%; in assay [4], 49%. In addition, in assay [2], the IC50 worked out at 2900 nM. The EC50 in assay [5] came out at 240 nM.
